Laboratory results as given in PubChem BioAssay (NCI).
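At the GI50, growth is halved. TGI marks complete inhibition of growth.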

How the values were obtained:
Assay in all cases: inhibition of tumour cell growth, NCI panel, 384-well format
[1] = tested on: MCF7 breast
[2] = tested on: MDA-MB-468 breast
[3] = tested on: RXF 393 renal
[4] = tested on: SF-539 CNS
[5] = tested on: OVCAR-3 ovarian
[6] = tested on: HOP-62 NSCLC
[7] = tested on: UACC-62 melanoma
[8] = tested on: OVCAR-4 ovarian
[9] = tested on: NCI-H226 lung
[10] = tested on: NCI-H23 lung
[11] = tested on: MOLT-4 leukemia
[12] = tested on: TK-10 renal
[13] = tested on: NCI-H322M lung
[14] = tested on: CAKI-1 renal
[15] = tested on: SN12C renal
[16] = tested on: HS 578T breast
[17] = tested on: IGROV1 ovarian
[18] = tested on: PC-3 prostate
[19] = tested on: SF-295 CNS
[20] = tested on: A498 renal
[21] = tested on: NCI-H522 lung
[22] = tested on: NCI/ADR-RES ovarian
[23] = tested on: U251 glioblastoma
[24] = tested on: OVCAR-5 ovarian
[25] = tested on: HT29 colon
[26] = tested on: K-562 leukemia
[27] = tested on: HCT-116 colon
[28] = tested on: ACHN renal
[29] = tested on: SNB-75 CNS
[30] = tested on: HL-60(TB) leukemia
[31] = tested on: LOX IMVI melanoma
[32] = tested on: SK-MEL-5 melanoma
[33] = tested on: SK-MEL-28 melanoma
[34] = tested on: T-47D breast
[35] = tested on: RPMI-8226 leukemia
[36] = tested on: KM12 colon
[37] = tested on: HCT-15 colon
[38] = tested on: SW-620 colon
[39] = tested on: UACC-257 melanoma
[40] = tested on: OVCAR-8 ovarian
[41] = tested on: DU-145 prostate
[42] = tested on: HOP-92 NSCLC
[43] = tested on: SNB-19 CNS
[44] = tested on: BT-549 breast
[45] = tested on: HCC-2998 colon
[46] = tested on: MALME-3M melanoma
[47] = tested on: COLO 205 colon
[48] = tested on: NCI-H460 NSCLC
[49] = tested on: MDA-MB-231 breast
[50] = tested on: M14 melanoma
[51] = tested on: MDA-MB-435 melanoma
[52] = tested on: EKVX NSCLC
[53] = tested on: UO-31 renal
[54] = tested on: A549 NSCLC
[55] = tested on: CCRF-CEM leukemia
[56] = tested on: 786-0 renal
[57] = tested on: SK-OV-3 ovarian
[58] = tested on: SF-268 CNS

## CN1CCN(c2ccc(C(=O)Nc3cc(-c4cccc(NS(=O)(=O)c5ccccc5)c4)[nH]n3)cc2)CC1
[1]
  GI50: 1410 nM
  TGI: 2920 nM
[2]
  GI50: 2090 nM
  TGI: 3620 nM
[3]
  GI50: 1240 nM
  TGI: 2520 nM
[4]
  GI50: 838 nM
  TGI: 2110 nM
[5]
  GI50: 1620 nM
  TGI: 3030 nM
[6]
  GI50: 1590 nM
  TGI: 3310 nM
[7]
  GI50: 1800 nM
  TGI: 3200 nM
[8]
  GI50: 1790 nM
  TGI: 4070 nM
[9]
  GI50: 111 nM
  TGI: 11600 nM
[10]
  GI50: 1910 nM
  TGI: 3750 nM
[11]
  GI50: 1200 nM
  TGI: 2440 nM
[12]
  GI50: 2270 nM
  TGI: 4560 nM
[13]
  GI50: 1930 nM
  TGI: 4220 nM
[14]
  GI50: 1670 nM
  TGI: 3080 nM
[15]
  GI50: 2440 nM
  TGI: 8740 nM
[16]
  GI50: 1310 nM
  TGI: 2600 nM
[17]
  GI50: 628 nM
  TGI: 1930 nM
[18]
  GI50: 2570 nM
  TGI: 7410 nM
[19]
  GI50: 1890 nM
  TGI: 3400 nM
[20]
  GI50: 2070 nM
  TGI: 3530 nM
[21]
  GI50: 1880 nM
  TGI: 3550 nM
[22]
  GI50: > 100000 nM
  TGI: > 100000 nM
[23]
  GI50: 1640 nM
  TGI: 3030 nM
[24]
  GI50: 1890 nM
  TGI: 3940 nM
[25]
  GI50: 1520 nM
  TGI: 2930 nM
[26]
  GI50: 1450 nM
  TGI: 2790 nM
[27]
  GI50: 1660 nM
  TGI: 3080 nM
[28]
  GI50: 2150 nM
  TGI: 4660 nM
[29]
  GI50: 949 nM
  TGI: 2370 nM
[30]
  GI50: 2480 nM
  TGI: 3960 nM
[31]
  GI50: 1620 nM
  TGI: 3010 nM
[32]
  GI50: 1460 nM
  TGI: 2790 nM
[33]
  GI50: 2170 nM
  TGI: 3630 nM
[34]
  GI50: 1370 nM
  TGI: 2690 nM
[35]
  GI50: 1450 nM
  TGI: 2780 nM
[36]
  GI50: 25 nM
  TGI: 1380 nM
[37]
  GI50: 3500 nM
  TGI: 8850 nM
[38]
  GI50: 1840 nM
  TGI: 3330 nM
[39]
  GI50: 1780 nM
  TGI: 3180 nM
[40]
  GI50: 1810 nM
  TGI: 3350 nM
[41]
  GI50: 2330 nM
  TGI: 4970 nM
[42]
  GI50: 1370 nM
  TGI: 2870 nM
[43]
  GI50: 2020 nM
  TGI: 4480 nM
[44]
  GI50: 1170 nM
  TGI: 2420 nM
[45]
  GI50: 1470 nM
  TGI: 3010 nM
[46]
  GI50: 1640 nM
  TGI: 3010 nM
[47]
  GI50: 891 nM
  TGI: 2140 nM
[48]
  GI50: 1690 nM
  TGI: 3150 nM
[49]
  GI50: 1520 nM
  TGI: 3300 nM
[50]
  GI50: 1650 nM
  TGI: 3030 nM
[51]
  GI50: 1960 nM
  TGI: 3410 nM
[52]
  GI50: 2100 nM
  TGI: 4870 nM
[53]
  GI50: 3690 nM
  TGI: 10400 nM
[54]
  GI50: 1780 nM
  TGI: 3300 nM
[55]
  GI50: 1620 nM
  TGI: 2990 nM
[56]
  GI50: 1560 nM
  TGI: 2980 nM
[57]
  GI50: 1160 nM
  TGI: 2440 nM
[58]
  GI50: 1230 nM
  TGI: 2700 nM
